Data from ChEMBL document CHEMBL1140952 (J Med Chem, 2009).

Key:
[1] = Antiproliferative activity against Met-dependent human GTL16 cells after 72 hrs by MTS assay; format: functional, cell-based; conditions: GTL 16, 72 h
[2] = molecular target: Hepatocyte growth factor receptor (Homo sapiens, UniProt P08581); test: Inhibition of MET
[3] = Metabolic stability in mouse liver microsomes assessed per mg of protein; format: ADME, Microsome
Cytochrome P450 2C9 = Cytochrome P450 2C9 (Homo sapiens, UniProt P11712); test: Inhibition of CYP2C9; format: ADME
Sequence of Cytochrome P450 2C9 (P11712 whole entry): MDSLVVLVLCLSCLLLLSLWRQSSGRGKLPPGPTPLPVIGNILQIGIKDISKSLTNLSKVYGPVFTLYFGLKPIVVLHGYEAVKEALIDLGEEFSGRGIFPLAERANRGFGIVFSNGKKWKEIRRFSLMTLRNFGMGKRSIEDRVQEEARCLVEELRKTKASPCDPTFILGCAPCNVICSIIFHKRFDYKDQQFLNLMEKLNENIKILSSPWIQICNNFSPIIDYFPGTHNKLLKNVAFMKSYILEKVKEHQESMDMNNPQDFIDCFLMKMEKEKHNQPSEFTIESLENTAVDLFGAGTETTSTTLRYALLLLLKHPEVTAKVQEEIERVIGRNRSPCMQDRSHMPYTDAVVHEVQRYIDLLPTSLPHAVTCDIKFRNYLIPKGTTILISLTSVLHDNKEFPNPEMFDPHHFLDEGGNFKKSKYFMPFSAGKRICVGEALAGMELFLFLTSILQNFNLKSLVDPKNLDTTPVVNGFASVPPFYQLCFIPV

Cytochrome P450 2D6 = Cytochrome P450 2D6 (Homo sapiens, UniProt P10635); test: Inhibition of CYP2D6; format: ADME
Sequence of Cytochrome P450 2D6 (P10635 whole entry): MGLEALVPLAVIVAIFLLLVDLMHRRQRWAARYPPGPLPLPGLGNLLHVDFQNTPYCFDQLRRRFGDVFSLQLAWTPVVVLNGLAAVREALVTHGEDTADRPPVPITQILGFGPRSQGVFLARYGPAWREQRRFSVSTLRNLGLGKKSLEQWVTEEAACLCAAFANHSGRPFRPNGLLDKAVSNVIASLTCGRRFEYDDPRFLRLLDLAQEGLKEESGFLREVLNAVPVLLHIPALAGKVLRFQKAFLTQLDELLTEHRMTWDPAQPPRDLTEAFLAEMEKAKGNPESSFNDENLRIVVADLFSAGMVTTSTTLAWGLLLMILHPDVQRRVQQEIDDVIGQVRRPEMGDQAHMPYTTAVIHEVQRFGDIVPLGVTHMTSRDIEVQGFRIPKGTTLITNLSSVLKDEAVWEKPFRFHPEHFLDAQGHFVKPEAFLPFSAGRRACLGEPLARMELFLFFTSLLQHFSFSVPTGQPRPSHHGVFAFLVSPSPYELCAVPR

Cytochrome P450 2C19 = Cytochrome P450 2C19 (Homo sapiens, UniProt P33261); test: Inhibition of CYP2C19; format: ADME
Sequence of Cytochrome P450 2C19 (P33261 whole entry): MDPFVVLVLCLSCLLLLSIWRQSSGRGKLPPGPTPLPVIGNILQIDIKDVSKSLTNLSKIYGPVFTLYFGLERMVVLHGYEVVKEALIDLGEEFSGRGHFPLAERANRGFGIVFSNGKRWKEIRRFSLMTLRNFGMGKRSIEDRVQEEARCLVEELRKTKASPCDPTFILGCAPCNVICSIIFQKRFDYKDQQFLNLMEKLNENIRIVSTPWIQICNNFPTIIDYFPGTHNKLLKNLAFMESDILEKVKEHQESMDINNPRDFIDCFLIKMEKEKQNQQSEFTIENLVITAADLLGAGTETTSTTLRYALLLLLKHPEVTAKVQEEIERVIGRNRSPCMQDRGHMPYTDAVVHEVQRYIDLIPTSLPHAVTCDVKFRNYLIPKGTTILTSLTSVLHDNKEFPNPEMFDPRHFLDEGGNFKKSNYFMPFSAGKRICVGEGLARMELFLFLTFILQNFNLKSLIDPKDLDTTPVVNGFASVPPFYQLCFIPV

Cytochrome P450 1A2 = Cytochrome P450 1A2 (Homo sapiens, UniProt P05177); test: Inhibition of CYP1A2; format: ADME
Sequence of Cytochrome P450 1A2 (P05177 whole entry): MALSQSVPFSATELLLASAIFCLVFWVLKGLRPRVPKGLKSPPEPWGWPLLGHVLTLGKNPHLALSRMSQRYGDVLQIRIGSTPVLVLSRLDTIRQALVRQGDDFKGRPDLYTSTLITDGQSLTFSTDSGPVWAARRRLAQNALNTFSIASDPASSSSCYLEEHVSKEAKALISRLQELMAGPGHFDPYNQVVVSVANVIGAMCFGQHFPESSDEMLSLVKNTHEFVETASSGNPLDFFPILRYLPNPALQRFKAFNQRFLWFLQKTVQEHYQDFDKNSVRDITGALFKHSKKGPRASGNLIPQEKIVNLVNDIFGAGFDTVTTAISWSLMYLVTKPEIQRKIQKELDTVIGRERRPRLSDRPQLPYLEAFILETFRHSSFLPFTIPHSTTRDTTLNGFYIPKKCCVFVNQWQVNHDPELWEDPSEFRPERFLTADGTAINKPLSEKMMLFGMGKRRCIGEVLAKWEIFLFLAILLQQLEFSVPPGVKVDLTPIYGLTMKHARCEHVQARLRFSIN

Cytochrome P450 3A4 = Cytochrome P450 3A4 (Homo sapiens, UniProt P08684); test: Inhibition of CYP3A4; format: ADME
Sequence of Cytochrome P450 3A4 (P08684 whole entry): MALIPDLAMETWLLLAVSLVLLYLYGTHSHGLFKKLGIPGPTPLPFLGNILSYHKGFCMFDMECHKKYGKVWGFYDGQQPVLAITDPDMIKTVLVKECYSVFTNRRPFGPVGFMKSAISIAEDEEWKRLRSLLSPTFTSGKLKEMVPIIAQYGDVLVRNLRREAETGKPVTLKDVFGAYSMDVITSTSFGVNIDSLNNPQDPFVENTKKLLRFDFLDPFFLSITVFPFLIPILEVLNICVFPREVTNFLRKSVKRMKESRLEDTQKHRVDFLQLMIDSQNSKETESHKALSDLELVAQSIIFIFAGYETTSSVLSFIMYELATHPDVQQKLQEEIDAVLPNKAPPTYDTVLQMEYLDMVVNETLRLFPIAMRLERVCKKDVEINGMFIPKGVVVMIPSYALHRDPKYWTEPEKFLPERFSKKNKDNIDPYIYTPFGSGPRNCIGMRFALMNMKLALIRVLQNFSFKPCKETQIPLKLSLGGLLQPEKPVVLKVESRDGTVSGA

Sequence of Hepatocyte growth factor receptor (P08581 whole entry): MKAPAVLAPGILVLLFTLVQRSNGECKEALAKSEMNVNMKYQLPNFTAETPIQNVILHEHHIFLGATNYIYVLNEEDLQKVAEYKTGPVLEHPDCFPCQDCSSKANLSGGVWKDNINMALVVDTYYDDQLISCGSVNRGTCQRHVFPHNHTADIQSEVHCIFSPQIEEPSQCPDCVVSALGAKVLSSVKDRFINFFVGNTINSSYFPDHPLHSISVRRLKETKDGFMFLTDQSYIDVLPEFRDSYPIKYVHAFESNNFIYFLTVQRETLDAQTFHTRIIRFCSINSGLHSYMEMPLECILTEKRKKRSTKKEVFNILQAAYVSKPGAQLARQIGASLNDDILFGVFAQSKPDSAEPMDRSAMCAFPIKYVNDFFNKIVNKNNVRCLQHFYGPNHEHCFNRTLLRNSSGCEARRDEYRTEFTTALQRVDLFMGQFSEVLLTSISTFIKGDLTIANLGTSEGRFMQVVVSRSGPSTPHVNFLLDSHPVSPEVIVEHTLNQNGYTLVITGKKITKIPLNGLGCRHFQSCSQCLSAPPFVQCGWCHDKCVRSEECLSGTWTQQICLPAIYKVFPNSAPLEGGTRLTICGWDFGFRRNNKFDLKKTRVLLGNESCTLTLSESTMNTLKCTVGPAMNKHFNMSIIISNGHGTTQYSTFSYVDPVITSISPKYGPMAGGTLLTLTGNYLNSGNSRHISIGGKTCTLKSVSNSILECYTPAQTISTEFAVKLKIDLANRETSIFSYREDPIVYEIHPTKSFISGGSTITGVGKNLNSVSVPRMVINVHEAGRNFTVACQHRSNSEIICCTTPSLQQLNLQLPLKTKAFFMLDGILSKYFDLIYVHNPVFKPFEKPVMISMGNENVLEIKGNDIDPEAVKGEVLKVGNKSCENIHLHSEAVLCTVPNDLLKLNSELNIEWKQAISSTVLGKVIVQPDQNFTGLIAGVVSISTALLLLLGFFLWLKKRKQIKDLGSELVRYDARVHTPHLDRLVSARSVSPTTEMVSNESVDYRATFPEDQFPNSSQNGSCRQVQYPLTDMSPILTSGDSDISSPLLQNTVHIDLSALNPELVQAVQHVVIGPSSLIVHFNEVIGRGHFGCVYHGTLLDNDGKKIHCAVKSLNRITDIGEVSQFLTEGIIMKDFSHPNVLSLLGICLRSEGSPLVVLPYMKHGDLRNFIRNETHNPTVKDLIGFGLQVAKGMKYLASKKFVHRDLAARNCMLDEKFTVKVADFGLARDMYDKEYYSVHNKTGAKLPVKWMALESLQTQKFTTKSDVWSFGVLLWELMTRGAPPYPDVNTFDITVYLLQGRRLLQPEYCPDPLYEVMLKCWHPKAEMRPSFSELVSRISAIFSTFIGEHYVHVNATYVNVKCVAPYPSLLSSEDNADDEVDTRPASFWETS

Which IC50 [1] does the source give for Nc1nccc(Oc2ccc(NC(=O)c3cccn(-c4ccc(F)cc4)c3=O)cc2F)c1C#CCO here?
Its IC50 is 0.023 µM.

What about the IC50 [2] of the same compound?
Its IC50 is 0.0027 µM.

Which IC50 [1] does the source give for CC(C)Oc1ccn(-c2ccc(F)cc2)c(=O)c1C(=O)Nc1ccc(Oc2ccnc(N)c2Cl)c(F)c1 here?
Its IC50 is 0.14 µM.

And the IC50 [2]?
The IC50 was 0.0032 µM.

Which Activity [3] does the source give for Nc1nccc(Oc2ccc(NC(=O)c3cccn(-c4ccc(F)cc4)c3=O)cc2F)c1Cl here?
The Activity was 0.012 nmol/min/mg.

What about the IC50 (Cytochrome P450 2C9) of the same compound?
Its IC50 is 7 µM.

What about the IC50 [1] of the same compound?
Its IC50 is 0.057 µM.

And the IC50 (Cytochrome P450 2D6)?
Its IC50 is greater than 20 µM.

What about the IC50 (Cytochrome P450 2C19) of the same compound?
Its IC50 is greater than 20 µM.

What about the IC50 (Cytochrome P450 1A2) of the same compound?
The IC50 was greater than 20 µM.

What about the IC50 (Cytochrome P450 3A4) of the same compound?
Its IC50 is 4 µM.

And the IC50 [2]?
Its IC50 is 0.001 µM.

Which IC50 [1] does the source give for Nc1nccc(Oc2ccc(NC(=O)c3cccn(-c4ccc(F)cc4)c3=O)cc2F)c1CO here?
The IC50 was 0.28 µM.

What about the IC50 [2] of the same compound?
Its IC50 is 0.0034 µM.

For CC(C)c1c(Oc2ccc(NC(=O)c3cccn(-c4ccc(F)cc4)c3=O)cc2F)ccnc1N, which IC50 [1] is on record?
Its IC50 is 0.12 µM.

And the IC50 [2]?
Its IC50 is 0.0034 µM.

What does the source list for C#Cc1c(Oc2ccc(NC(=O)c3cccn(-c4ccc(F)cc4)c3=O)cc2F)ccnc1N?
IC50 [1]: 0.031 µM; IC50 (Cytochrome P450 3A4): < 1 µM; IC50 [2]: 0.001 µM
